The target of one data set is T1, P-gp (Homo sapiens, UniProt P08183).
T1 construct: from tissue; host or cells: intestine of healthy human participants (in vivo)
The data set can be described thus: Phase 1 open-label fixed-sequence 2-period drug-drug interaction study: effect of single oral dose of Compound A on PK of dabigatran (P-gp probe substrate). It counts as in vivo. The following applies: co-administration of Compound A with dabigatran in healthy participants. The text has this:
Compound A was investigated in an interventional, Phase 1, open-label, fixed sequence, 2-period study to evaluate the effect of a single oral dose of Compound A on the PK of dabigatran in healthy participants.
The objective of this drug-drug interaction study was to evaluate the impact of Compound A on the PK of dabigatran etexilate (a model substrate for P-gp) in healthy adults (NCT05673889)
All participants in this study received one dose of dabigatran etexilate mesylate alone by mouth in Period 1. In Period 2, everyone received one dose of dabigatran etexilate mesylate by mouth approximately 90 mins after receiving one dose of Compound A by mouth. The levels of dabigatran in Period I were compared to the levels of dabigatran in Period 2. This study design was used to determine if and how Compound A affects dabigatran absorption into the body in healthy adults.
This was a Phase 1, open-label, 2-period, fixed-sequence study to estimate the effect of a single oral dose of Compound A on the PK of a P-gp substrate, dabigatran etexilate (as mesylate), in healthy male participants and female participants with nonchildbearing potential. […]
Natural log transformed parameters (AUCinf [if data permitted], AUClast, and Cmax) of total dabigatran were analyzed using a mixed effect model with treatment as a fixed effect and participant as a random effect. […]

Data set [1] is described as follows: Safety and tolerability (TEAEs, clinical laboratory tests, vital signs, ECGs) in the Phase 1 drug-drug interaction study. The data set is classed as in vivo, human. The following applies: for number of all-causality adverse events (AEs): 24 participants. The text has this: This was a Phase 1, open-label, 2-period, fixed-sequence study to estimate the effect of a single oral dose of Compound A on the PK of a P-gp substrate, dabigatran etexilate (as mesylate), in healthy male participants and female participants with nonchildbearing potential.
On Period 1 Day 1, a standard breakfast (approximately 700 calories with a fat content of approximately 35%) was provided prior to dosing. The standard breakfast was required to be completely consumed within an approximately 20-minute period. A single dose of 75 mg dabigatran etexilate (as mesylate) (as 1 capsule of 75 mg) was administered approximately 2 hrs (120 mins) after starting the standard breakfast. To adequately remove any drug effects of dabigatran, a minimum washout period of 4 days was required after dabigatran etexilate (as mesylate) administration on Period 1 Day 1. Serial PK samples were collected up to 48 hrs after single dose administration to determine dabigatran PK parameters (total).
On Period 2 Day 1, a standard breakfast (approximately 700 calories with a fat content of approximately 35%) was provided prior to Compound A and dabigatran etexilate (as mesylate) dosing. The standard breakfast was required to be the same as provided in Period 1 Day 1 and was required to be completely consumed within an approximately 20-minute period. A single dose of 200 mg Compound A (as 2 tablets of 100 mg) was administered approximately 10 mins after the completion of the breakfast. A single dose of 75 mg dabigatran etexilate
(as mesylate) (as 1 capsule of 75 mg) was administered approximately 1.5 hour (90 mins) after the start of Compound A dosing, which was approximately 2 hrs (120 mins) after the start of the breakfast. Serial PK samples were collected up to 48 hrs post dabigatran etexilate (as mesylate) dosing to determine the single dose PK parameters of Compound A and dabigatran (total) • Masking: No masking (open label) • Enrollment number: 24
Compound A co-administered with dabigatran etexilate mesylate was the test treatment. All safety analyses were performed on the safety analysis set. Safety data were presented in tabular and/or graphical format and summarized descriptively, where appropriate in accordance with the Clinical Data Interchange Standards Consortium Standards […].

The nature of data set [2]: Biopharmaceutics Classification System class. It counts as physicochemical. The following applies: low solubility/low permeability.
The nature of data set [3]: Preclinical exposure of epimer Compound B compared to Compound A. It counts as in vivo. The following applies: preclinical data; Compound B formed by interconversion (epimer) of Compound A.
The next data set concerns the target T2, ER (Homo sapiens, UniProt P03372).
T2 sequence (P03372 1-595): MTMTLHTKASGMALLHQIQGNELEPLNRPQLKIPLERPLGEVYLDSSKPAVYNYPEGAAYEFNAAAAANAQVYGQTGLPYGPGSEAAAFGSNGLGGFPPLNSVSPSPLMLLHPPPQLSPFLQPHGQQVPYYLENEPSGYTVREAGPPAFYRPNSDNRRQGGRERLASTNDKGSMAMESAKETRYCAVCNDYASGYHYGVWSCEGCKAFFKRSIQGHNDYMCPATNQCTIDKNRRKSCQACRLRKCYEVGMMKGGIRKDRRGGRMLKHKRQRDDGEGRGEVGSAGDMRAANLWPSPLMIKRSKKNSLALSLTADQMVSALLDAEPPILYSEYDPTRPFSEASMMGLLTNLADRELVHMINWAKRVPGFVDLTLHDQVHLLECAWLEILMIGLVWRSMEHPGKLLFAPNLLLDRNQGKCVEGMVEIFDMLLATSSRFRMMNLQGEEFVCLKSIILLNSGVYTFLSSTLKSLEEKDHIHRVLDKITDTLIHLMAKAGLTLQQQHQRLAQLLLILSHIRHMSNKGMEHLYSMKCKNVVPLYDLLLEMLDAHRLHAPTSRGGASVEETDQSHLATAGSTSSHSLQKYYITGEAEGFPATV
Nature of the data set: ER degradation. The data set is classed as cell-based.

For data set [4], the system named is ER-dependent transcription. Nature of the data set: Antagonism of ER-dependent transcription. It counts as cell-based.
Where [5] appears, read: Compound A 200 mg and dabigatran etexilate mesylate 75 mg, not considered treatment related.
[6] abbreviates: single dose Compound A 200 mg and dabigatran etexilate mesylate 75 mg.
Setting [7] is: single dose Compound A 200 mg and dabigatran etexilate mesylate 75 mg (Treatment Period 2).
The mark [8] stands for this setting: single dose dabigatran etexilate mesylate 75 mg (Treatment Period 1).
Setting [9] is: dabigatran etexilate mesylate 75 mg alone.
Where [10] appears, read: dabigatran etexilate mesylate 75 mg alone, considered treatment related.
Setting [11] is: dabigatran etexilate mesylate 75 mg alone, not considered treatment related.

From patent US20260199324A1, “METHOD OF TREATING BREAST CANCER” (Arvinas Operations, Inc., priority 2022, published 2026) come the findings set out here.

Structures are written as SMILES. Where a name gives a salt, the structure may show the parent alone.

T1 sequence (P08183 whole entry): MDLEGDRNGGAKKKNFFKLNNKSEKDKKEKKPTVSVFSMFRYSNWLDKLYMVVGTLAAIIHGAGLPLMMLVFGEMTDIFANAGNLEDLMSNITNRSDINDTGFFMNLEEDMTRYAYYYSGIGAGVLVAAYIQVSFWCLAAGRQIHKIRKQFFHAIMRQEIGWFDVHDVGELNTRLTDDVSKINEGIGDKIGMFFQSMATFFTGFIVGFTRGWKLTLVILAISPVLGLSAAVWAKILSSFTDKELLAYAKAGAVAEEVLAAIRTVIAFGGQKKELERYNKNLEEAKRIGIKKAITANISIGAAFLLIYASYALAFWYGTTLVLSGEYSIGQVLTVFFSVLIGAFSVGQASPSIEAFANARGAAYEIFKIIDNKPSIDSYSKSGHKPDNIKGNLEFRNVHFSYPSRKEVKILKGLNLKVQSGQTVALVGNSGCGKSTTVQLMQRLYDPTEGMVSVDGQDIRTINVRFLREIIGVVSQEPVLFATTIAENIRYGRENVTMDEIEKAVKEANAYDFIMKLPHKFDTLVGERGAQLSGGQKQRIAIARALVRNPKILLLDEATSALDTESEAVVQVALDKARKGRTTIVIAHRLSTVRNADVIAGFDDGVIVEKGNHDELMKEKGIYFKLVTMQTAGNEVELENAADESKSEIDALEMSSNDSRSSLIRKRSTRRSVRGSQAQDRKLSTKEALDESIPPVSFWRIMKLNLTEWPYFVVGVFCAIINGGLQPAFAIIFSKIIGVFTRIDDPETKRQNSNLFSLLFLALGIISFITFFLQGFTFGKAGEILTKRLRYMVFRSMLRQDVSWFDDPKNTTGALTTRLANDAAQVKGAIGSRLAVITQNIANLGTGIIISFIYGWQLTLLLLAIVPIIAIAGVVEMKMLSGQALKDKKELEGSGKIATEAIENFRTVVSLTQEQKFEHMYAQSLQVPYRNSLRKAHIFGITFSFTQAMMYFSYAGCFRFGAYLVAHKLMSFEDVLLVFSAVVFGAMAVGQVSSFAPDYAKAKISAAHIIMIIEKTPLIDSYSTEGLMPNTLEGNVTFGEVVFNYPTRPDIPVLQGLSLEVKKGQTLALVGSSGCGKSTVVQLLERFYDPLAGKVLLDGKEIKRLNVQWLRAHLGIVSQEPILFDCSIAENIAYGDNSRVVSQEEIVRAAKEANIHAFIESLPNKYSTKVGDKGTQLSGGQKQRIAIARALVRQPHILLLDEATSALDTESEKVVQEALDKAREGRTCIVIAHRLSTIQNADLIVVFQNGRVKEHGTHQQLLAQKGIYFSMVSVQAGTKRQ

Turning to `O=C1CC[C@H](N2Cc3cc(N4CCN(CC5CCN(c6ccc([C@@H]7c8ccc(O)cc8CC[C@@H]7c7ccccc7)cc6)CC5)CC4)ccc3C2=O)C(=O)N1` [Compound A, (S)-3-(5-(4-((1-(4-((1R,2S)-6-hydroxy-2-phenyl-1,2,3,4-tetrahydronaphthalen-1-yl)phenyl)piperidin-4-yl)methyl)piperazin-1-yl)-1-oxoisoindolin-2-yl) piperidine-2,6-dione], on P-gp, the “P-gp inhibition (conclusion from increased dabigatran exposure)” value is listed as “P-gp inhibitor”. In data set [1] (Compound A 200 mg and dabigatran etexilate mesylate 75 mg), the “participants with moderate AE of contusion” value is given as 1 (4.2%) participants (%). Further, in data set [1] (Compound A 200 mg and dabigatran etexilate mesylate 75 mg, considered treatment related), the “participants with moderate AE of headache” value was 1 (4.2%) participants (%). In data set [1] (setting [5]), the “participants with mild AE of contusion” value is 1 (4.2%) participants (%), the “participants with mild AE of oropharyngeal pain” value was 1 (4.2%) participants (%), the “participants with mild AE of rhinorrhea” value is listed as 1 (4.2%) participants (%) and the “participants with mild AE of wound” value is on record as 1 (4.2%) participants (%). In addition, in data set [1] (setting [6]), the “participants with Leukocyte Esterase ≥1” value was 1 (4.2%) participants (%) and the “participants with Monocytes/Leukocytes >1.2×ULN” value was 2 (8.3%) participants (%). Besides, in data set [1] (setting [7]), the “number of AEs considered treatment related” value was found to be 1, the “participants with all-causality AEs (TEAEs)” value (shortened to “participants … (TEAEs)”) is 6 (25.0%) participants (%) and the “number of all-causality adverse events (AEs)” value is on record as 7. In addition, in data set [1] (single dose Compound A 200 mg and dabigatran etexilate mesylate 75 mg (Treatment Period 2), headache), the “participants with treatment related AEs” value is given as 1 (4.2%) participants (%). In addition, the “Biopharmaceutics Classification System class” value in data set [2] is given as “Class IV”.
For `O=C1CC[C@@H](N2Cc3cc(N4CCN(CC5CCN(c6ccc([C@@H]7c8ccc(O)cc8CC[C@@H]7c7ccccc7)cc6)CC5)CC4)ccc3C2=O)C(=O)N1` [Compound B], the “exposure of Compound B compared to Compound A” value in data set [3] is recorded as less than 26%. For the same compound, the “degradation of the ER” value at ER was “does not degrade the ER”. Besides, the “antagonism of ER-dependent transcription compared to Compound A” value in data set [4] is recorded as “similar”.
For `[H]/N=C(/N)c1ccc(NCc2nc3cc(C(=O)N(CCC(=O)O)c4ccccn4)ccc3n2C)cc1` [dabigatran, 3-[[2-[(4-carbamimidoylanilino)methyl]-1-methylbenzimidazole-5-carbonyl]-pyridin-2-ylamino]propanoic acid], in data set [1] (setting [8]), the “participants … (TEAEs)” value is listed as 6 (25.0%) participants (%) and the “participants with treatment related AEs” value is given as 3 (12.5%) participants (%).
Take `CCCCCCOC(=O)NC(=N)c1ccc(NCc2nc3cc(C(=O)N(CCC(=O)OCC)c4ccccn4)ccc3n2C)cc1` [dabigatran etexilate mesylate, β-Alanine, N-[[2-[[[4-[[[(hexyloxy)carbonyl]amino]iminomethyl]phenyl]amino]methyl]-1-methyl-1H-benzimidazol-5-yl]carbonyl]-N-2-pyridinyl-, ethyl ester]: in data set [1] (setting [9]), the “participants with mild AE of dry throat” value is 1 (4.2%) participants (%) and the “participants with mild AE of lip dry” value is recorded as 1 (4.2%) participants (%). Besides, in data set [1] (setting [10]), the “participants with mild AE of diarrhea” value is given as 1 (4.2%) participants (%), the “participants with mild AE of dry skin” value is given as 1 (4.2%) participants (%), the “participants with mild AE of hot flush” value is on record as 1 (4.2%) participants (%) and the “participants with mild AE of nausea” value is 1 (4.2%) participants (%). In data set [1] (setting [11]), the “participants with moderate AE of hematoma” value was 2 (8.3%) participants (%) and the “participants with moderate AE of myalgia” value was 1 (4.2%) participants (%). The “participants with Monocytes/Leukocytes >1.2× upper limit of normal (ULN)” value in data set [1] (single dose dabigatran etexilate mesylate 75 mg) is listed as 2 (8.3%) participants (%). Besides, in data set [1] (setting [8]), the “number of AEs considered treatment related” value was 4, the “participants … (TEAEs)” value is 6 (25.0%) participants (%), the “participants with treatment related AEs” value is reported as 3 (12.5%) participants (%) and the “number of all-causality adverse events (AEs)” value worked out at 9.
